Reference: ChEMBL document CHEMBL6134856, “Rapid Response Antimicrobial Peptide Design Strategy Driven by Meta-Learning for Emerging Drug-Resistant Pathogens” (J Med Chem, 2025)

How the values were obtained:
[1] = test system: Acinetobacter baumannii; test: Antimicrobial activity against CTX/AK/CRO drugs-resistant Acinetobacter baumannii 0110 assessed as inhibition of bacterial growth incubated for approximately 18 hrs by resazurin dye based broth microdilution assay; assay type: functional
[2] = test system: Acinetobacter baumannii; test: Antimicrobial activity against SAM/CTX/AK/CRO/CN drugs-resistant Acinetobacter baumannii 0004 assessed as inhibition of bacterial growth incubated for approximately 18 hrs by resazurin dye based broth microdilution assay; assay type: functional
[3] = test system: Acinetobacter baumannii; test: Antimicrobial activity against CTX/CRO/CN drugs-resistant Acinetobacter baumannii 0214 assessed as inhibition of bacterial growth incubated for approximately 18 hrs by resazurin dye based broth microdilution assay; assay type: functional
[4] = test system: Acinetobacter baumannii; test: Antimicrobial activity against SAM/CTX/AK/CRO/CN drugs-resistant Acinetobacter baumannii 0101 assessed as inhibition of bacterial growth incubated for approximately 18 hrs by resazurin dye based broth microdilution assay; assay type: functional
[5] = Hemolytic activity in Sprague-Dawley rat erythrocytes incubated for 1 hr by multifunctional microplate reader analysis; assay type: toxicity, cell-based, Erythrocyte; conditions: for HC50 at 1 h: Sprague-Dawley, erythrocytes; for HC5: erythrocyte, 1 h
[6] = test system: Acinetobacter baumannii; test: Antimicrobial activity against SAM/CTX/CRO/CN drugs-resistant Acinetobacter baumannii 0320 assessed as inhibition of bacterial growth incubated for approximately 18 hrs by resazurin dye based broth microdilution assay; assay type: functional
[7] = test system: Acinetobacter baumannii; test: Antimicrobial activity against SAM-resistant Acinetobacter baumannii 0413 assessed as inhibition of bacterial growth incubated for approximately 18 hrs by resazurin dye based broth microdilution assay; assay type: functional
[8] = test system: Candida albicans; test: Antimicrobial activity against Candida albicans ATCC 14053 assessed as inhibition of bacterial growth incubated for approximately 18 hrs by resazurin dye based broth microdilution assay; assay type: functional
[9] = test system: Staphylococcus aureus; test: Antimicrobial activity against Staphylococcus aureus ATCC 25923 assessed as inhibition of bacterial growth incubated for approximately 18 hrs by resazurin dye based broth microdilution assay; assay type: functional

Substance	MIC [1]	MIC [2]	MIC [3]	MIC [4]	HC50 at 1 h [5]	HC5 [5]	MIC [6]	MIC [7]	MIC [8]	MIC [9]
H-AWKAKLKRLAIAWKR-OH	8 µM	4 µM	4 µM	8 µM	> 256 µM	> 256 µM	4 µM	4 µM	8 µM	> 32 µM
H-FWKKVFKWIWRVLHNFG-OH		8 µM			12.6 µM	1.28 µM				
H-GLWKRWKKVLWGAKNKI-OH	4 µM	2 µM	4 µM	4 µM	> 256 µM	> 256 µM	2 µM	2 µM	8 µM	16 µM
H-GWAKRLVQRLADWLRKF-OH		2 µM			43.9 µM	7.22 µM			> 32 µM	8 µM
H-IWLAVWKGLLKRWLH-OH		2 µM			10.5 µM	1.17 µM			16 µM	2 µM
H-KIRWLLYWIRRKRL-OH		16 µM								
H-KLKRWLVWLIRKLW-OH		16 µM								
H-KRIWRKILWWIKWR-OH		8 µM								
H-KWARRLVYLIANYWKKR-OH		2 µM			117 µM	14.63 µM			> 32 µM	> 32 µM
H-KWFKKLPKILHKLAKKW-OH	2 µM	2 µM	4 µM	2 µM	294 µM	38.67 µM	2 µM	2 µM	> 32 µM	2 µM
H-KWKIFKRIVGRILRYLR-OH		4 µM			15.7 µM	1.47 µM			> 32 µM	8 µM
H-LWKILKKIWRVLKNWN-OH		4 µM			35.9 µM	7.59 µM			32 µM	8 µM
H-RIRFKWRWWMRIRLKWY-OH		16 µM			> 256 µM	> 256 µM			> 32 µM	> 32 µM
H-RIWVLIYRWYRKWY-OH		32 µM								
H-RLIKIWWIYRRKWR-OH		128 µM								
H-RLWKIWLVWIRWRNQK-OH		16 µM			330 µM	27.41 µM			> 32 µM	> 32 µM
H-RLWKIWWKIWRVLI-OH		16 µM								
H-RQIKIWFQNRRWGLQLK-OH	16 µM	16 µM	16 µM	16 µM	> 256 µM	> 256 µM	16 µM	8 µM	> 32 µM	> 32 µM
H-RRRLILWILWRRLR-OH		4 µM			166 µM	10.09 µM			> 32 µM	8 µM
H-RWRKIWFLWRYKIW-OH		128 µM								
H-VLAANRLVRRLAQKIAR-OH		32 µM			> 256 µM	> 256 µM			16 µM	> 32 µM
H-WFKKLLKLALKWAKYA-OH		4 µM			13.1 µM	1.46 µM			> 32 µM	2 µM
